From US20050053704A1, “Acidic composition and its uses” (Mionix Corporation, priority 2003, published 2005)
Where two headings read alike, the source gives them in different places.

Legend:
[1] = Contact of acidic solution with human skin; settings: solution with a pH of less than 0.5
L. monocytogenes [2] = settings: cited from earlier work
L. monocytogenes [3] = settings: dipping in 5% acid, refrigerated storage; cited from earlier work

Which “Irritation of a hand put into the solution” value [1] does the source give for `O=S(=O)(O)O` [sulfuric acid] here?
Its value is “an irritation would occur within a relatively short span of time”.

For `CC(O)C(=O)O` (stereo not drawn) [lactate], which “Effect on growth of L. monocytogenes” value (L. monocytogenes [2]; lactate (4%), sterile broth, chicken and beef (Shelef and Yang 1991)) is on record?
Its value is “growth suppression”.

And the “Listeristatic effect, L. monocytogenes strain Scott A” value (L. monocytogenes [2]; lactate concentrations less than 4%, meat model system (Chen and Shelef 1992))?
The value was “not listeristatic”.

For `CC(=O)O` [acetic acid], which “Effect on L. monocytogenes of dipping in acid” value (L. monocytogenes [3]) is on record?
The value was “not only killed, but also prevented from growing during 90 days of refrigerated storage”.

Which “Effect on growth of L. monocytogenes” value (L. monocytogenes [2]; 3 or 4% compared to 0 or 2%, cooked beef stored at 10° C. (Miller and Acuff 1994)) does the source give for `CC(O)C(=O)[O-].[Na+]` (stereo not drawn) [Sodium lactate] here?
Its value is “effective against the growth”.

For `CC(O)C(=O)O` (stereo not drawn) [lactic acid], which “Effect on L. monocytogenes of dipping in acid” value (L. monocytogenes [3]) is on record?
Its value is “not only killed, but also prevented from growing during 90 days of refrigerated storage”.
